Data: patent US5869501A, “Amidinonaphthyl derivative or salt thereof” (Yamanouchi Pharmaceutical Co. Ltd, priority 1994, dated 1999)
Structures can show the parent of a compound that is named as a salt. Where two headings read alike, the source gives them in different places.

How the values were obtained:
Type in all cases: biochemical
[1] = biological target: T1, human activated blood coagulation factor X (Homo sapiens, UniProt P00742); test: Measurement of blood coagulation time by human activated blood coagulation factor X (human plasma); settings: read-out: CT2 (dose which extends the blood coagulation time twice), human activated blood coagulation factor X
T1 construct: purchased Cosmo Bio
Protocol: 1) Test on the measurement of blood coagulation time by human activated blood coagulation factor X.
Human activated blood coagulation factor X (manufactured by Cosmo Bio) is dissolved in 0.05M Tris-HCl buffer (pH=7.40) to prepare a 0.05 unit/ml solution. A blood sample collected using 1/10 volume of 3.8% sodium citrate was centrifuged at 3,000 rpm for 10 minutes. Then, 90 μl portion of the thus separated human plasma was mixed with 10 μl of each drug which has been diluted by dissolving in physiological saline and 50 μl of the aforementioned activated blood coagulation factor X solution, and the mixture was incubated at 37° C. for 3 minutes. Then, 100 μl of 20 mM CaCl2 solution was added to measure the blood coagulation time. KC4A manufactured by Amelung was used for the measurement of blood coagulation time. A dose which extends the blood coagulation time twice (to be referred to as CT2 hereinafter) was calculated based on the blood coagulation time when 10 μl of physiological saline was added instead of the drug.

[2] = biological target: T2, bovine thrombin (Bos taurus, UniProt P00735); test: Measurement of coagulation time by bovine thrombin (human fibrinogen); settings: pH=7.40, read-out: CT2 (dose which extends the blood coagulation time twice), bovine thrombin
T2 construct: clotting of human fibrinogen
Protocol: 2) Test on the measurement of coagulation time by bovine thrombin.
Human fibrinogen (freeze-dried preparation, manufactured by Sigma) is dissolved in 0.05M Tris-HCl buffer (pH=7.40) to prepare a 6 mg/ml solution. Bovine thrombin (500 IU/vial, manufactured by Mochida Pharmaceutical) is dissolved in physiological saline to prepare thrombin solutions of various concentrations. A 100 μl portion of the aforementioned fibrinogen solution was mixed with 100 μl of physiological saline, the mixture was incubated at 37° C. for 3 minutes. Then, 100 μl of the aforementioned thrombin solution was added to measure the coagulation time and to determine concentration of thrombin which causes coagulation after about 20 seconds. Next, 100 μl of each drug which has been diluted with physiological saline was added to 100 μl of the aforementioned fibrinogen solution to measure the coagulation time. KC4A manufactured by Amelung was used for the measurement of the coagulation time. A dose which extends the blood coagulation time twice (to be referred to as CT2 hereinafter) was calculated based on the blood coagulation time when 100 μl of physiological saline was added.

[3] = biological target: T1, human activated blood coagulation factor X; test: Measurement of enzyme inhibition by a synthetic substrate method (S-2222); settings: 37° C., 15 minutes, absorbance at 405 nm
Protocol: 3) Test on the measurement of enzyme inhibition by a synthetic substrate method.
Human activated blood coagulation factor X (manufactured by Cosmo Bio) was dissolved in 0.02M Tris-HCl buffer (pH=7.40) containing 0.15M sodium chloride to prepare a 6 units/ml solution. A synthetic substrate S-2222 (manufactured by Daiichi Kagaku Yakuhin) was dissolved in purified water to prepare a 0.75 mg/ml solution. A 25 μl portion of each drug which has been prepared by dissolving the drug in physiological saline was mixed with 170 μl of 0.05M Tris-HCl buffer (pH=8.40) and 50 μl of the S-2222 solution. Then, 10 μl of the human activated blood coagulation factor X solution was added and the mixture was incubated at 37° C. for 15 minutes. The reaction was stopped by adding 50 μl of 60% acetic acid and then the absorbance at 405 nm was measured to calculate IC50 value. Model 3550 manufactured by Bio-Rad was used for the measurement. A reaction mixture prepared by adding physiological saline instead of the drug and adding 60% acetic acid prior to the addition of the human activated blood coagulation factor X solution was used as a control. Concentration of the drug when 50% of the reaction was inhibited (to be referred to as IC50 hereinafter) was calculated based on the control.

[4] = human plasma, 37° C., 3 minutes incubation

T1 sequence (P00742 235-488 limits assumed): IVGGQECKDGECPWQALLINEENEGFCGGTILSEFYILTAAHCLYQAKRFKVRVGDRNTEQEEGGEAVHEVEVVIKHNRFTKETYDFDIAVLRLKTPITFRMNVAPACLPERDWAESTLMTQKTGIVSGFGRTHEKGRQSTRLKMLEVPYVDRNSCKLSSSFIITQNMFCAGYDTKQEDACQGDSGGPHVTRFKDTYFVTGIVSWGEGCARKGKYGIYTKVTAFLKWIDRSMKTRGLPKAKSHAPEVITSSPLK
T1 sequence (P00742 41-179 partner limits assumed): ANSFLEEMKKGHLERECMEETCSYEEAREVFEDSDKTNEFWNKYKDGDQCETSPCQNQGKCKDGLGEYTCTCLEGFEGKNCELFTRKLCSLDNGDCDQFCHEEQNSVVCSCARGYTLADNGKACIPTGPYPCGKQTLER

IC (2-fold clotting time) [2] [µM]	IC (2-fold clotting time) [1, 4] [µM]	SMILES	IC (2-fold clotting time) [1] [µM]	IC50 [3] [nM]
> 100	0.04	CCOC(=O)N(CC(=O)O)S(=O)(=O)N(Cc1ccc2ccc(C(=N)N)cc2c1)c1ccc(OC2CCN(C(C)=N)CC2)cc1 [Example 86, N-[N-[4-[(1-Acetoimidoyl-4-piperidyl)oxy]phenyl]-N-[(7-amidino-2-naphthyl)methyl]sulfamoyl]-N-ethoxycarbonylglycine dihydrochloride]	–	–
> 100	0.11	CCOC(=O)C(=O)N(Cc1ccc2ccc(C(=N)N)cc2c1)c1ccc(OC2CCN(C(C)=N)CC2)cc1 [Example 23, ethyl N-[4-[(1-acetoimidoyl-4-piperidyl)oxy]phenyl]-N-[(7-amidino-2-naphthyl)methyl]oxamate dihydrochloride]	–	–
> 100	0.09	CC(=N)N1CCC(Oc2ccc(N(Cc3ccc4ccc(C(=N)N)cc4c3)S(=O)(=O)c3ccc(C(=O)O)cc3)cc2)CC1 [Example 74, 4-[N-[4-[(1-Acetoimidoyl-4-piperidyl)oxy]phenyl]-N-[(7-amidino-2-naphthyl)methyl]sulfamoyl]benzoic acid dihydrochloride]	–	–
> 100	0.05	CCS(=O)(=O)N(Cc1ccc2ccc(C(=N)N)cc2c1)c1ccc(OC2CCN(C(C)=N)CC2)cc1 [Example 28, N-[4-[(1-Acetoimidoyl-4-piperidyl)oxy]phenyl]-N-[(7-amidino-2-naphthyl)methyl]ethanesulfonamide dihydrochloride]	–	–
> 100	0.14	COc1ccccc1C(=O)N(Cc1ccc2ccc(C(=N)N)cc2c1)c1ccc(OC2CCN(C(C)=N)CC2)cc1 [Example 33, N-[4-[(1-Acetoimidoyl-4-piperidyl)oxy]phenyl]-N-[(7-amidino-2-naphthyl)methyl]-2-methoxybenzamide dihydrochloride]	–	–
> 100	0.04	CCOC(=O)NS(=O)(=O)N(Cc1ccc2ccc(C(=N)N)cc2c1)c1ccc(OC2CCN(C(C)=N)CC2)cc1 [Example 63, Ethyl N-[N-[4-[(1-acetoimidoyl-4-piperidyl)oxy]phenyl]-N-[7-amidino-2-naphthyl)methyl]sulfamoyl]carbamate dihydrochloride]	–	–
> 100	0.09	CC(=N)N1CCC(Oc2ccc(NCc3ccc4ccc(C(=N)N)cc4c3)cc2)CC1 [Example 31, 7-[[4-[(1-Acetoimidoyl-4-piperidyl)oxy]anilino]methyl]-2-naphthamidine trihydrochloride]	–	–
> 100	0.13	CC(=N)N1CCC(Oc2ccc(N(Cc3ccc4ccc(C(=N)N)cc4c3)C(=O)c3c(F)cccc3F)cc2)CC1 [Example 47, N-[4-[(1-Acetoimidoyl-4-piperidyl)oxy]phenyl]-N-[(7-amidino-2-naphthyl)methyl]-2,6-difluorobenzamide dihydrochloride]	–	–

SMILES	IC (2-fold clotting time) [2] [µM]	IC (2-fold clotting time) [1, 4] [µM]	IC (2-fold clotting time) [1] [µM]	IC50 [3] [nM]
CNS(=O)(=O)N(Cc1ccc2ccc(C(=N)N)cc2c1)c1ccc(OC2CCN(C(C)=N)CC2)cc1 [Example 79, N-[4-[(1-Acetoimidoyl-4-piperidyl)oxy]phenyl]-N-[(7-amidino-2-naphthyl)methyl]-N'-methylsulfamide dihydrochloride]	> 100	–	0.05	91
CCOC(=O)CNS(=O)(=O)N(Cc1ccc2ccc(C(=N)N)cc2c1)c1ccc(OC2CCN(C(C)=N)CC2)cc1 [Example 88, Ethyl N-[N-[4-[(1-acetoimidoyl-4-piperidyl)oxy]phenyl]-N-[(7-amidino-2-naphthyl)methyl]sulfamoyl]glycinate dihydrochloride]	> 100	–	0.04	47
